# Results reported in ChEMBL document CHEMBL1151696 (Bioorg Med Chem, 2008).
# Calls of active or inactive are those of the source. The calls are words filed in the database; no cut-off is given here.
# Assays:
# [1] = test system: Punta Toro virus; assay type: functional, organism-based
# [2] = target: Glutamate NMDA receptor; assay: Antagonist activity at NMDA receptor in cerebellar granule neurons assessed as inhibition of NMDA-induced increase in intracellular calcium concentration by fluorometric assay; assay type: functional, cell-based
# [3] = test system: Coxsackievirus B4; assay type: functional, organism-based
# [4] = target: Glutamate NMDA receptor; assay: Antagonist activity at NMDA receptor in cerebellar granule neurons assessed as inhibition of glutamate-induced increase in intracellular calcium concentration by fluorometric assay; assay type: functional, cell-based
# [5] = test system: Respiratory syncytial virus; assay type: functional, organism-based
# [6] = test system: Sindbis virus; assay type: functional, organism-based
# [7] = test system: Vesicular stomatitis virus; assay type: functional, organism-based
# [8] = test system: Mammalian orthoreovirus 1; assay type: functional, organism-based
# [9] = test system: Human alphaherpesvirus 1; assay type: functional, organism-based
# [10] = test system: Feline coronavirus; assay type: functional, organism-based
# [11] = test system: Human alphaherpesvirus 2; assay type: functional, organism-based
# [12] = test system: Human respirovirus 3; assay type: functional, organism-based
# [13] = species: Rattus norvegicus; assay: Inhibition of [3H]dopamine uptake in Wistar rat striatum synaptosomes at 100 uM by scintillation spectrometry; assay type: functional, subcellular; design: scale not given: the % may be the effect or the level left
SMILES,Activity [1],IC50 [2],Activity [3],IC50 [4],Activity [5],Activity [6],Activity [7],Activity [8],Activity [9],Activity [10],Activity [11],Activity [12],Activity [13]
CC12CC3CC1(C)CC3(CNC(=N)N)C2,inactive,7.1 µM,inactive,104 µM,inactive,inactive,inactive,inactive,inactive,inactive,inactive,inactive,
c1ccc(CNCC23CC4CC(CC2C4)C3)cc1,inactive,138 µM,inactive,> 500 µM,inactive,inactive,inactive,inactive,inactive,inactive,inactive,inactive,57.9%
CN(C)CC12CC3(C)CC1CC3(C)C2,inactive,> 200 µM,inactive,> 200 µM,inactive,inactive,inactive,inactive,inactive,inactive,inactive,inactive,
CC12CC3CC1(C)CC3(CN1CCCCC1)C2,inactive,> 200 µM,inactive,> 200 µM,inactive,inactive,inactive,inactive,inactive,inactive,inactive,inactive,39.8%
COc1ccccc1CNC12CC3CC(CC1C3)C2,inactive,92 µM,inactive,> 500 µM,inactive,inactive,inactive,inactive,inactive,inactive,inactive,inactive,58.3%
CNCC12CC3CC(CC1C3)C2,inactive,71 µM,inactive,> 500 µM,inactive,inactive,inactive,inactive,inactive,inactive,inactive,inactive,76.3%
c1csc(CNC23CC4CC(CC2C4)C3)c1,inactive,17 µM,inactive,384 µM,inactive,inactive,inactive,inactive,inactive,inactive,inactive,inactive,47.7%
N=C(N)NCC12CC3CC(CC1C3)C2,inactive,,inactive,,inactive,inactive,inactive,inactive,inactive,inactive,inactive,inactive,119%
CNCC12CC3(C)CC1CC3(C)C2,inactive,> 200 µM,inactive,> 200 µM,inactive,inactive,inactive,inactive,inactive,inactive,inactive,inactive,57.3%
Fc1ccc(CNC23CC4CC(CC2C4)C3)cc1,inactive,> 200 µM,inactive,> 200 µM,inactive,inactive,inactive,inactive,inactive,inactive,inactive,inactive,81.1%
NC(N)=NCC12CC3CC(CC1C3)C2,,25 µM,,453 µM,,,,,,,,,
CN(Cc1ccccc1)CC12CC3CC(CC1C3)C2,inactive,178 µM,inactive,> 500 µM,inactive,inactive,inactive,inactive,inactive,inactive,inactive,inactive,45%
CC12CC3CC1(C)CC3(NCc1ccccc1)C2,inactive,70 µM,inactive,143 µM,inactive,inactive,inactive,inactive,inactive,inactive,inactive,inactive,
CN(C)C12CC3CC(CC1C3)C2,inactive,173 µM,inactive,> 500 µM,inactive,inactive,inactive,inactive,inactive,inactive,inactive,inactive,71.3%
CC12CC3CC(C)(C1)CC(N)(C3)C2,,,,,,,,,,,,,53.7%
CC12CC3CC1(C)CC3(N)C2,inactive,23 µM,inactive,274 µM,inactive,inactive,inactive,inactive,inactive,inactive,inactive,inactive,54.8%
CN(Cc1ccccc1)C12CC3(C)CC1CC3(C)C2,inactive,> 200 µM,inactive,> 200 µM,inactive,inactive,inactive,inactive,inactive,inactive,inactive,inactive,
c1ccc(CNC23CC4CC(CC2C4)C3)cc1,inactive,> 200 µM,inactive,> 200 µM,inactive,inactive,inactive,inactive,inactive,inactive,inactive,inactive,31.7%
CN(C)CC12CC3CC(CC1C3)C2,inactive,> 200 µM,inactive,> 200 µM,inactive,inactive,inactive,inactive,inactive,inactive,inactive,inactive,62.5%
CNC12CC3(C)CC1CC3(C)C2,inactive,35 µM,inactive,,inactive,inactive,inactive,inactive,inactive,inactive,inactive,inactive,74.6%
COc1cccc(CNC23CC4CC(CC2C4)C3)c1,inactive,87 µM,inactive,> 500 µM,inactive,inactive,inactive,inactive,inactive,inactive,inactive,inactive,45.8%
C1CCN(C23CC4CC(CC2C4)C3)CC1,inactive,45 µM,inactive,> 500 µM,inactive,inactive,inactive,inactive,inactive,inactive,inactive,inactive,68.5%
CC12CC3CC1(C)CC3(NCc1cccs1)C2,inactive,80 µM,inactive,204 µM,inactive,inactive,inactive,inactive,inactive,inactive,inactive,inactive,
COc1ccc(CNC23CC4CC(CC2C4)C3)cc1,inactive,> 200 µM,inactive,> 200 µM,inactive,inactive,inactive,inactive,inactive,inactive,inactive,inactive,63.9%
